Measured values as given in patent publication US9624170B2, “4-(piperrazin-1-yl)-pyrrolidin-2-one compounds as monoacylglycerol lipase (MAGL) inhibitors” (TAKEDA PHARMACEUTICAL COMPANY LIMITED, priority 2013, dated 2017).

The molecules below were run against T1, human MAGL (His-hMAGL) (Homo sapiens, UniProt Q99685) (assay: Measurement of MAGL inhibitory activity by mass spectrometry). Details: MAGL inhibitory rate, test compound 10 μM, His-hMAGL, substrate 2-arachidonylglycerol, RapidFire-mass spectrometry.
T1 construct: made in house; host or cells: Escherichia coli BL21(DE3)
T1 sequence (Q99685 1-303): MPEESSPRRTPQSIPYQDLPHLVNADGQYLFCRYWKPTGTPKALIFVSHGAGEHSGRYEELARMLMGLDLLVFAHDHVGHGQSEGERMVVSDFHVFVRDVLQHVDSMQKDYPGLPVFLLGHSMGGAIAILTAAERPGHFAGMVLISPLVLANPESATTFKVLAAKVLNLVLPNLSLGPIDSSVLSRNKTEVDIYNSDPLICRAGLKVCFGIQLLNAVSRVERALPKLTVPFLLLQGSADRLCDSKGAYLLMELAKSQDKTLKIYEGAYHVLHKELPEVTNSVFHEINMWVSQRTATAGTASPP
Format: biochemical
Procedure, shortened: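 His-tagged human MAGL was reacted with 150 μM 2-arachidonylglycerol substrate (stock, added by 5 μL) for 10 min at room temperature, then stopped with formic acid. Arachidonic acid product was quantified by RapidFire–triple-quadrupole MS in negative SRM mode, corrected by arachidonic acid-d8, and converted to percent inhibition.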

| Compound | inhibition at 10 µM |
| --- | --- |
| O=C(c1nccs1)N1CCN(C2CC(=O)N(c3cccc(-c4ccsc4C(F)(F)F)c3)C2)CC1 (stereo not shown) [Example 341, 4-(4-(1,3-thiazol-2-ylcarbonyl)piperazin-1-yl)-1-(3-(2-(trifluoromethyl)-3-thienyl)phenyl)pyrrolidin-2-one] | 101% |
| COc1nccc2[nH]cc(-c3cccc(N4CC(N5CCN(C(=O)c6nccs6)CC5)CC4=O)c3)c12 (stereo not shown) [Example 343, 1-(3-(4-methoxy-1H-pyrrolo[3,2-c]pyridin-3-yl)phenyl)-4-(4-(1,3-thiazol-2-ylcarbonyl)piperazin-1-yl)pyrrolidin-2-one] | 101% |
| O=C(c1nccs1)N1CCN(C2CC(=O)N(c3cccc(-c4c(F)cccc4Cl)c3)C2)CC1 (stereo not shown) [Example 344, 1-(2′-chloro-6′-fluorobiphenyl-3-yl)-4-(4-(1,3-thiazol-2-ylcarbonyl)piperazin-1-yl)pyrrolidin-2-one] | 98% |
| O=C(c1nccs1)N1CCN(C2CC(=O)N(c3cccc(-c4csc5ncccc45)c3)C2)CC1 (stereo not shown) [Example 347, 4-(4-(1,3-thiazol-2-ylcarbonyl)piperazin-1-yl)-1-(3-(thieno[2,3-b]pyridin-3-yl)phenyl)pyrrolidin-2-one] | 100% |
| O=C(c1nccs1)N1CCN(C2CC(=O)N(c3cccc(-c4nc(C(F)(F)F)cs4)c3)C2)CC1 (stereo not shown) [Example 349, 4-(4-(1,3-thiazol-2-ylcarbonyl)piperazin-1-yl)-1-(3-(4-(trifluoromethyl)-1,3-thiazol-2-yl)phenyl)pyrrolidin-2-one] | 98% |
| O=C(c1nccs1)N1CCN(C2CC(=O)N(c3cc(F)cc(-c4ccccc4Cl)c3)C2)CC1 (stereo not shown) [Example 350, 1-(2′-chloro-5-fluorobiphenyl-3-yl)-4-(4-(1,3-thiazol-2-ylcarbonyl)piperazin-1-yl)pyrrolidin-2-one] | 104% |
| COc1c(-c2cccc(N3CC(N4CCN(C(=O)c5nccs5)CC4)CC3=O)c2)ccc2c1NC(=O)C2 (stereo not shown) [Example 351, 7-Methoxy-6-(3-(2-oxo-4-(4-(1,3-thiazol-2-ylcarbonyl)piperazin-1-yl)pyrrolidin-1-yl)phenyl)-1,3-dihydro-2H-indol-2-one] | 100% |
| Cc1ccnc(C)c1-c1cccc(N2CC(N3CCN(C(=O)c4nccs4)CC3)CC2=O)c1 (stereo not shown) [Example 352, 1-(3-(2,4-dimethylpyridin-3-yl)phenyl)-4-(4-(1,3-thiazol-2-ylcarbonyl)piperazin-1-yl)pyrrolidin-2-one] | 102% |
| O=C(c1nccs1)N1CCN(C2CC(=O)N(c3cc(-c4ccccc4F)c4[nH]ccc4c3)C2)CC1 (stereo not shown) [Example 353, 1-(7-(2-Fluorophenyl)-1H-indol-5-yl)-4-(4-(1,3-thiazol-2-ylcarbonyl)piperazin-1-yl)pyrrolidin-2-one] | 101% |
| COc1ccccc1-c1cc(N2CC(N3CCN(C(=O)c4nccs4)CC3)CC2=O)cc2cc[nH]c12 (stereo not shown) [Example 354, 1-(7-(2-methoxyphenyl)-1H-indol-5-yl)-4-(4-(1,3-thiazol-2-ylcarbonyl)piperazin-1-yl)pyrrolidin-2-one] | 101% |
| Cc1cc(Cl)ccc1-c1cccc(N2CC(N3CCN(C(=O)c4nccs4)CC3)CC2=O)c1 (stereo not shown) [Example 356, 1-(4′-chloro-2′-methylbiphenyl-3-yl)-4-(4-(1,3-thiazol-2-ylcarbonyl)piperazin-1-yl)pyrrolidin-2-one] | 98% |
| Cc1cc(Cl)ccc1-c1cc(F)cc(N2CC(N3CCN(C(=O)c4nccs4)CC3)CC2=O)c1 (stereo not shown) [Example 357, 1-(4′-chloro-5-fluoro-2′-methylbiphenyl-3-yl)-4-(4-(1,3-thiazol-2-ylcarbonyl)piperazin-1-yl)pyrrolidin-2-one] | 101% |
| Cc1cnc(-n2ccc3cc(N4CC(N5CCN(C(=O)c6nccs6)CC5)CC4=O)ccc32)nc1 (stereo not shown) [Example 358, 1-(1-(5-methylpyrimidin-2-yl)-1H-indol-5-yl)-4-(4-(1,3-thiazol-2-ylcarbonyl)piperazin-1-yl)pyrrolidin-2-one] | 102% |
| C[C@H]1CN(C2CC(=O)N(c3ccc4c(ccn4-c4ccc(F)cc4)c3)C2)CCN1C(=O)c1nccs1 (stereo partly drawn) [Example 363, 1-(1-(4-fluorophenyl)-1H-indol-5-yl)-4-((3S)-3-methyl-4-(1,3-thiazol-2-ylcarbonyl)piperazin-1-yl)pyrrolidin-2-one] | 96% |
| O=C(c1nccs1)N1CCN(C2CC(=O)N(c3ccc4c(c3)CCN4c3ccnc(C(F)(F)F)c3)C2)CC1 (stereo not shown) [Example 365, 4-(4-(1,3-thiazol-2-ylcarbonyl)piperazin-1-yl)-1-(1-(2-(trifluoromethyl)pyridin-4-yl)-2,3-dihydro-1H-indol-5-yl)pyrrolidin-2-one] | 98% |
| O=C(c1nccs1)N1CCN(C2CC(=O)N(c3sc4cc(F)ccc4c3Cl)C2)CC1 (stereo not shown) [Example 366, 1-(3-Chloro-6-fluoro-1-benzothiophen-2-yl)-4-(4-(1,3-thiazol-2-ylcarbonyl)piperazin-1-yl)pyrrolidin-2-one] | 100% |
| O=C(c1nccs1)N1CCN(C2CC(=O)N(c3ccc4c(c3)CCN4)C2)CC1 (stereo not shown) [Example 374, 1-(2,3-Dihydro-1H-indol-5-yl)-4-(4-(1,3-thiazol-2-ylcarbonyl)piperazin-1-yl)pyrrolidin-2-one] | 81% |

The next lines start with the values.

| inhibition at 10 µM | Compound |
| --- | --- |
| 100% | O=C(c1nccs1)N1CCN(C2CC(=O)N(c3cccc(-c4cccn5ccnc45)c3)C2)CC1 (stereo not shown) [Example 342, 1-(3-(imidazo[1,2-a]pyridin-8-yl)phenyl)-4-(4-(1,3-thiazol-2-ylcarbonyl)piperazin-1-yl)pyrrolidin-2-one] |
| 97% | Cc1cn2c(-c3cccc(N4CC(N5CCN(C(=O)c6nccs6)CC5)CC4=O)c3)cccc2n1 (stereo not shown) [Example 345, 1-(3-(2-methylimidazo[1,2-a]pyridin-5-yl)phenyl)-4-(4-(1,3-thiazol-2-ylcarbonyl)piperazin-1-yl)pyrrolidin-2-one] |
| 99% | O=C(c1nccs1)N1CCN(C2CC(=O)N(c3cccc(-c4ccnc5sccc45)c3)C2)CC1 (stereo not shown) [Example 346, 4-(4-(1,3-thiazol-2-ylcarbonyl)piperazin-1-yl)-1-(3-(thieno[2,3-b]pyridin-4-yl)phenyl)pyrrolidin-2-one] |
| 99% | O=C1Cc2c(-c3cccc(N4CC(N5CCN(C(=O)c6nccs6)CC5)CC4=O)c3)ccnc2N1 (stereo not shown) [Example 348, 4-(3-(2-oxo-4-(4-(1,3-thiazol-2-ylcarbonyl)piperazin-1-yl)pyrrolidin-1-yl)phenyl)-1,3-dihydro-2H-pyrrolo[2,3-b]pyridin-2-one] |
| 98% | COc1ccccc1-c1cc(N2CC(N3CCN(C(=O)c4nccs4)CC3)CC2=O)cc2cn[nH]c12 (stereo not shown) [Example 355, 1-(7-(2-methoxyphenyl)-1H-indazol-5-yl)-4-(4-(1,3-thiazol-2-ylcarbonyl)piperazin-1-yl)pyrrolidin-2-one] |
| 96% | C[C@@H]1CN(C(=O)c2nccs2)CCN1C1CC(=O)N(c2ccc3c(ccn3-c3ccc(F)cc3)c2)C1 (stereo partly drawn) [Example 359, 1-(1-(4-fluorophenyl)-1H-indol-5-yl)-4-((2R)-2-methyl-4-(1,3-thiazol-2-ylcarbonyl)piperazin-1-yl)pyrrolidin-2-one] |
| 92% | O=C1CC(N2CCN(c3ncccn3)CC2)CN1c1ccc2c(ccn2-c2ccnc(C(F)(F)F)c2)c1 (stereo not shown) [Example 361, 4-(4-(pyrimidin-2-yl)piperazin-1-yl)-1-(1-(2-(trifluoromethyl)pyridin-4-yl)-1H-indol-5-yl)pyrrolidin-2-one] |
| 92% | Cc1nccnc1-c1cccc(N2CC(N3CCN(C(=O)c4nccs4)CC3)CC2=O)c1 (stereo not shown) [Example 362, 1-(3-(3-methylpyrazin-2-yl)phenyl)-4-(4-(1,3-thiazol-2-ylcarbonyl)piperazin-1-yl)pyrrolidin-2-one] |
| 97% | Cc1ccc(-c2cccc(N3CC(N4CCN(C(=O)c5nccs5)CC4)CC3=O)c2)c(C)n1 (stereo not shown) [Example 368, 1-(3-(2,6-dimethylpyridin-3-yl)phenyl)-4-(4-(1,3-thiazol-2-ylcarbonyl)piperazin-1-yl)pyrrolidin-2-one] |
| 101% | O=C(c1nccs1)N1CCN(C2CC(=O)N(c3cccc(-c4cnccc4Cl)c3)C2)CC1 (stereo not shown) [Example 370, 1-(3-(4-chloropyridin-3-yl)phenyl)-4-(4-(1,3-thiazol-2-ylcarbonyl)piperazin-1-yl)pyrrolidin-2-one] |
| 104% | O=C(c1nccs1)N1CCN(C2CC(=O)N(c3cccc(-c4cnccc4C(F)(F)F)c3)C2)CC1 (stereo not shown) [Example 371, 4-(4-(1,3-thiazol-2-ylcarbonyl)piperazin-1-yl)-1-(3-(4-(trifluoromethyl)pyridin-3-yl)phenyl)pyrrolidin-2-one] |
| 101% | CC(C)(C)OC(=O)N1CCc2cc(N3CC(N4CCN(C(=O)c5nccs5)CC4)CC3=O)ccc21 (stereo not shown) [Example 372, tert-Butyl 5-(2-oxo-4-(4-(1,3-thiazol-2-ylcarbonyl)piperazin-1-yl)pyrrolidin-1-yl)indoline-1-carboxylate] |
| 96% | O=C(c1nccs1)N1CCN(C2CC(=O)N(c3ccc4c(c3)CCN4C(=O)C(F)(F)F)C2)CC1 (stereo not shown) [Example 373, 4-(4-(1,3-Thiazol-2-ylcarbonyl)piperazin-1-yl)-1-(1-(trifluoroacetyl)-2,3-dihydro-1H-indol-5-yl)pyrrolidin-2-one] |
| 95% | O=C(c1nccs1)N1CCN(C2CC(=O)N(c3ccc4c(c3)CCN4C3CC3)C2)CC1 (stereo not shown) [Example 375, 1-(1-Cyclopropyl-2,3-dihydro-1H-indol-5-yl)-4-(4-(1,3-thiazol-2-ylcarbonyl)piperazin-1-yl)pyrrolidin-2-one] |
